Laboratory results as given in US20230404998A1, “Combination Therapies for Treating Cancer” (ASCENTAGE PHARMA (SUZHOU) CO., LTD., priority 2020, published 2023).

Molecular target: BaF3(Bcr-Abl) T315I-G250E (Homo sapiens, UniProt P00519, G250E/T315I, cells depend on it)
Conditions: read-out: Anti-proliferation (IC50)
Procedure: The anti-proliferative effect was determined by a water-soluble tetrazolium (WST)-based assay using Cell Counting Kit-8 (CCK-8, #D3100L4057, Shanghai life ilab bio technology co., LTD, China). Cells were seeded in 96-well plates and treated with different concentrations of test articles. […] Each treatment was tested in triplicates. The plate was then cultured at 37° C. with 5% CO2 for 72 hours. At the end of treatments, 20 μl/well of CCK-8 reagent was directly added to each wells. The plate was then incubated at 37° C. with 5% CO2 for 2-4 h. The OD value was detected at 450 nm on a microplate reader (SpectraMax I3X, Molecular Devices, US). IC50 values were calculated with Graphpad Prism 7.0 software using nonlinear regression (curve fitting) type data analysis. For combination effect assay, the cells viability was normalized using the mean OD value of triplicated wells for the single agent control.

BaF3(Bcr-Abl) T315I-G250E, sequence (P00519 whole entry G250E/T315I): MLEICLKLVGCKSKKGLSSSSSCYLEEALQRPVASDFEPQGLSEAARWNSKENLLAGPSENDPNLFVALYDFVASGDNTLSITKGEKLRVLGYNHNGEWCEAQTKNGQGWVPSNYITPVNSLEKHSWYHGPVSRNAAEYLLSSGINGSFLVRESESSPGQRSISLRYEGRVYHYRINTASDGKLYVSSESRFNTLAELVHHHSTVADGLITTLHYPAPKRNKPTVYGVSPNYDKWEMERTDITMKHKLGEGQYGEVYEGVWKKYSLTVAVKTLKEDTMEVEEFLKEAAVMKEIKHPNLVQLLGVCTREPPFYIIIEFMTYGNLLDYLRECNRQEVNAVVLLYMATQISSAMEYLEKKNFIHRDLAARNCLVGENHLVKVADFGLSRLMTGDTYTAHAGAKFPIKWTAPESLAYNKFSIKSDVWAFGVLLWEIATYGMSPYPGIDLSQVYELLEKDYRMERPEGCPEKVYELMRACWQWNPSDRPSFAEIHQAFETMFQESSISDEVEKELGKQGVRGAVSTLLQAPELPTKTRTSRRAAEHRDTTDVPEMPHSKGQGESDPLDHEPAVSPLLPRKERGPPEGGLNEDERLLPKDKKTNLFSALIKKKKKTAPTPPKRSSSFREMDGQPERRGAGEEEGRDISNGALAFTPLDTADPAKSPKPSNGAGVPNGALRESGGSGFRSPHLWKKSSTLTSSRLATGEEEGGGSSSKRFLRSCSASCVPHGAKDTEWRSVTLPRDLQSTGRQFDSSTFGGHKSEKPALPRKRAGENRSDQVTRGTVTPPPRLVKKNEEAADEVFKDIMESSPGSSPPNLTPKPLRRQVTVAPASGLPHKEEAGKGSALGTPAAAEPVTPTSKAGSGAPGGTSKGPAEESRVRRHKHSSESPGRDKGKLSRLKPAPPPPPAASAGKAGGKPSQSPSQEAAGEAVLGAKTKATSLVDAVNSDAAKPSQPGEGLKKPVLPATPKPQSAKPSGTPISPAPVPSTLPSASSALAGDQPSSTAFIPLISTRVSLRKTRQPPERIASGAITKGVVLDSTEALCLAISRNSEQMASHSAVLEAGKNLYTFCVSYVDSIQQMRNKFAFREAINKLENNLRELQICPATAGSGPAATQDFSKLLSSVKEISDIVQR

Q: How did the GI50 turn out when Cc1ccc(C(=O)Nc2ccc(CN3CCN(C)CC3)c(C(F)(F)F)c2)cc1C#Cc1cnc2[nH]ncc2c1 [HQP1351, 3-(2-(1H-pyrazolo[3,4-b]pyridin-5-yl)ethynyl)-4-methyl-N-(4-((4-methylpiperazin-1-yl)methyl)-3-(trifluoromethyl)phenyl)-benzamide] was run?
A: 33 ± 2 nM
